Here are results for 29 compounds from ChEMBL document CHEMBL3393036, “Tetra-substituted pyridinylimidazoles as dual inhibitors of p38α mitogen-activated protein kinase and c-Jun N-terminal kinase 3 for potential treatment of neurodegenerative diseases” (J Med Chem, 2015).

Data set [1] addresses Mitogen-activated protein kinase 10 (Homo sapiens, UniProt P53779). Put plainly: Inhibition of JNK3 (unknown origin) assessed as phosphorylation of ATF-2 by ELISA. (In an ELISA, binding on a coated surface is turned into a signal by an enzyme label.)
The species entered for another data set is Homo sapiens. Put plainly: Selectivity ratio of IC50 for JNK3 (unknown origin) to IC50 for p38alpha (unknown origin).
For data set [2], the target named is Mitogen-activated protein kinase 14 (Homo sapiens, UniProt Q16539). The experiment in a line: Inhibition of p38alpha (unknown origin) assessed as phosphorylation of ATF-2 by ELISA.
Sequence of Mitogen-activated protein kinase 14 (Q16539 whole entry): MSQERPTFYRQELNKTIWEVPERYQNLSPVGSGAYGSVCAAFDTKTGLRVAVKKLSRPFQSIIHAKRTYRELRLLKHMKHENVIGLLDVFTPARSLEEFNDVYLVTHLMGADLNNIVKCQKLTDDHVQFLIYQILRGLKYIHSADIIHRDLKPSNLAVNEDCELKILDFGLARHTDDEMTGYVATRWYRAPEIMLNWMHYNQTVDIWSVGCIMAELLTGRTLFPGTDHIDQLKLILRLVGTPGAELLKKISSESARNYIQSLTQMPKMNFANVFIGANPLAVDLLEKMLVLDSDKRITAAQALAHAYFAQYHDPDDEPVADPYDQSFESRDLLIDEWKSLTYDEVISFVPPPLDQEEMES
A further data set concerns U2OS. The experiment in a line: Cytotoxicity against human U2OS cells assessed as morphology up to 50 uM by DAPI staining assay. Format: cell-based.
Data set [3] is described as follows: Solubility in aqueous PBS-buffer at pH 7.4. The class given is physicochemical.
Data set [4] is described as follows: Metabolic stability in human liver microsomes assessed as compound remaining after 240 mins by LC-MS/MS analysis. Format: ADME. The note with it: read-out: Stability.

Values after ≈ are worked out from the molar mass of the structure shown.

As a reminder, the IC50 is the concentration at which inhibition is half-maximal. The solubility is how much of the substance goes into solution per volume.

Sequence of Mitogen-activated protein kinase 10 (P53779 whole entry): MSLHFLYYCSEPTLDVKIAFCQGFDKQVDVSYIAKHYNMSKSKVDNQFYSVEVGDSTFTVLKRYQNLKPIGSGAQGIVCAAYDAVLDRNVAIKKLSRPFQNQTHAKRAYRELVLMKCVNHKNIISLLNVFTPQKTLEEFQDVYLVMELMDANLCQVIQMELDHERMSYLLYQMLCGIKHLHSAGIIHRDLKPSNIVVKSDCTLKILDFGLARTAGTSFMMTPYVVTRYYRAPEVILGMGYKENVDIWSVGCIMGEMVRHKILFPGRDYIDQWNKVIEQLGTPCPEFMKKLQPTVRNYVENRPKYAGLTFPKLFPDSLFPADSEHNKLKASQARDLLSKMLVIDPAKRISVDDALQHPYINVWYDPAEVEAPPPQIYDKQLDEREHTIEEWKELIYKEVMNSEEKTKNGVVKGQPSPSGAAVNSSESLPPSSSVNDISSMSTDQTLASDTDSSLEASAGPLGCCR

Take `O=C(O)/C=C/Sc1nc(-c2ccc(F)cc2)c(-c2ccnc(Nc3ccccc3)c2)n1CC1CC1`: the results for the concentration for half-maximal inhibition (IC50) in data set [1] and in data set [2] were 213 nM and 181 nM, respectively. Moreover, the Ratio IC50 in the data set filed under Homo sapiens stood at 1.2.

As to `CCOC(=O)/C=C/Sc1nc(-c2ccc(F)cc2)c(-c2ccnc(NC(C)=O)c2)n1CC1CC1`, the IC50 was 1220 nM in data set [1] and 655 nM in data set [2]. Further, in the data set filed under Homo sapiens, the Ratio IC50 was 1.8.

In the case of `CC(=O)Nc1cc(-c2c(-c3ccc(F)cc3)nc(SCCC(=O)O)n2C)ccn1`, the results for the 50% inhibitory concentration (IC50) in data set [1] and in data set [2] were 91 nM and 246 nM, respectively. Further, the Ratio IC50 in the data set filed under Homo sapiens amounted to 0.4.

Take `O=C(O)/C=C\Sc1nc(-c2ccc(F)cc2)c(-c2ccnc(Nc3ccccc3)c2)[nH]1`: the results for the IC50 in data set [1] and in data set [2] were 17 nM and 36 nM, respectively. Moreover, the Ratio IC50 in the data set listed under Homo sapiens worked out at 0.5. Moreover, the Activity entry in the data set on U2OS is reported as “Non-toxic”.

With `CC(=O)Nc1cc(-c2c(-c3ccc(F)cc3)nc(S/C=C/C(=O)O)n2CC2CC2)ccn1`, the IC50 stood at 170 nM in data set [1] and 208 nM in data set [2]. The Ratio IC50 in the data set listed under Homo sapiens was 0.8.

Consider `COC(Cn1c(S/C=C\C(=O)O)nc(-c2ccc(F)cc2)c1-c1ccnc(NC(C)=O)c1)OC`, for which the IC50 stood at 33 nM in data set [1] and 335 nM in data set [2]. Besides, the Ratio IC50 in the data set listed under Homo sapiens was determined as 0.1.

Consider `O=C(O)/C=C\Sc1nc(-c2ccc(F)cc2)c(-c2ccnc(Nc3ccccc3)c2)n1CC1CC1`, for which the IC50 in data set [1] came out at 54 nM; in data set [2], 354 nM. In the data set filed under Homo sapiens, the Ratio IC50 worked out at 0.2.

On to `CC(=O)Nc1cc(-c2c(-c3ccc(F)cc3)nc(SC3CCC(C(=O)O)CC3O)n2C)ccn1` (stereo not given), for which the IC50 in data set [1] worked out at 180 nM; in data set [2], 764 nM. Further, the Ratio IC50 in the data set filed under Homo sapiens stood at 0.2.

Regarding `COC(=O)CSc1nc(-c2ccc(F)cc2)c(-c2ccnc(NC(C)=O)c2)n1C`, the concentration for half-maximal inhibition (IC50) in data set [1] came to 199 nM; in data set [2], 297 nM. Moreover, in the data set filed under Homo sapiens, the Ratio IC50 was 0.7.

Consider `COC(Cn1c(SCC#N)nc(-c2ccc(F)cc2)c1-c1ccnc(NC2CC2)c1)OC`, for which the values for the IC50 in data set [1] and in data set [2] were 79 nM and 153 nM, respectively. For the same compound, in the data set listed under Homo sapiens, the Ratio IC50 amounted to 0.5. In the data set on U2OS, the Activity entry is “Non-toxic”.

Regarding `CC(=O)Nc1cc(-c2c(-c3ccc(F)cc3)nc(S/C=C\C(=O)O)n2CC2CCCCC2)ccn1`, the half-maximal inhibitory concentration (IC50) in data set [1] turned out to be 25 nM; in data set [2], 39 nM. In addition, the Ratio IC50 in the data set filed under Homo sapiens stood at 0.6.

In the case of `CCOC(=O)/C=C/Sc1nc(-c2ccc(F)cc2)c(-c2ccnc(NC(C)=O)c2)n1CC(OC)OC`, the IC50 was determined as 2170 nM in data set [1] and 2180 nM in data set [2]. In the data set listed under Homo sapiens, the Ratio IC50 stood at 1.

Take `CC(=O)Nc1cc(-c2c(-c3ccc(F)cc3)nc(SC3CCC(C(=O)O)CC3O)n2C2CCCCC2)ccn1` (stereo not given): the IC50 in data set [1] came out at 79 nM; in data set [2], 416 nM. Further, in the data set filed under Homo sapiens, the Ratio IC50 worked out at 0.2.

Consider `CCC(C)Nc1cc(-c2c(-c3ccc(F)cc3)nc(S/C=C\C(=O)O)n2CC(OC)OC)ccn1` (stereo not given), for which the IC50 stood at 26 nM in data set [1] and 34 nM in data set [2]. The Ratio IC50 in the data set listed under Homo sapiens came out at 0.8. In data set [3], this compound had a solubility of 930 µg/mL (≈ 1860 µM). Moreover, the Activity result with U2OS is “Non-toxic”. Moreover, in data set [4], the remaining at 4 h was 56%.

As to `COC(Cn1c(SCCC(=O)O)nc(-c2ccc(F)cc2)c1-c1ccnc(NC(C)=O)c1)OC`, the figures for the IC50 in data set [1] and in data set [2] were 269 nM and 1700 nM, respectively. Moreover, the Ratio IC50 in the data set filed under Homo sapiens stood at 0.2.

Consider `CC(=O)Nc1cc(-c2c(-c3ccc(F)cc3)nc(SCC(=O)O)n2C)ccn1`, for which the 50% inhibitory concentration (IC50) in data set [1] is 266 nM; in data set [2], 1670 nM. Moreover, the Ratio IC50 in the data set listed under Homo sapiens was determined as 0.2.

`CC(=O)Nc1cc(-c2c(-c3ccc(F)cc3)nc(SCC(=O)N(C)C)n2C)ccn1`: the 50% inhibitory concentration (IC50) in data set [1] turned out to be 1190 nM; in data set [2], 140 nM. Moreover, the Ratio IC50 in the data set listed under Homo sapiens was 8.5.

In the case of `CC(=O)Nc1cc(-c2c(-c3ccc(F)cc3)nc(S/C=C\C(=O)O)n2C2CCCC2)ccn1`, the concentration for half-maximal inhibition (IC50) stood at 45 nM in data set [1] and 164 nM in data set [2]. The Ratio IC50 in the data set listed under Homo sapiens was determined as 0.3.

For the compound `CC(=O)Nc1cc(-c2c(-c3ccc(F)cc3)nc(SC3CCC(C(=O)O)CC3O)n2CC2CCCO2)ccn1` (racemic), the IC50 in data set [1] amounted to 2630 nM; in data set [2] it was 612 nM. For the same compound, the Ratio IC50 in the data set filed under Homo sapiens is 4.3.

`CC(=O)CSc1nc(-c2ccc(F)cc2)c(-c2ccnc(NC(C)=O)c2)n1C`: the IC50 in data set [1] worked out at 255 nM; in data set [2] it was 36 nM. Also, the Ratio IC50 in the data set listed under Homo sapiens came out at 7.1.

For `CC(=O)Nc1cc(-c2c(-c3ccc(F)cc3)nc(S/C=C\C(=O)O)n2CC2CC2)ccn1`, the concentration for half-maximal inhibition (IC50) in data set [1] was 18 nM; in data set [2] it was 30 nM. Also, in the data set listed under Homo sapiens, the Ratio IC50 is 0.6. The same compound returned a solubility in data set [3] of 1200 µg/mL (≈ 2650 µM). In the data set with U2OS, the Activity entry was “Non-toxic”. In data set [4], the remaining at 4 h came out at 70%.

`CC(=O)Nc1cc(-c2c(-c3ccc(F)cc3)nc(S/C=C\C(=O)O)n2C)ccn1`: the IC50 in data set [1] was determined as 55 nM; in data set [2], 191 nM. For the same compound, the Ratio IC50 in the data set listed under Homo sapiens came out at 0.3.

On to `CCNC(=O)N1CCC(Nc2cc(-c3c(-c4ccc(F)cc4)nc(S/C=C\C(=O)O)n3C)ccn2)CC1`, for which the IC50 in data set [1] stood at 61 nM; in data set [2], 146 nM. In addition, the Ratio IC50 in the data set filed under Homo sapiens stood at 0.4.

Take `CC(=O)Nc1cc(-c2c(-c3ccc(F)cc3)nc(S/C=C\C(=O)O)n2C2CCC2)ccn1`: the values for the half-maximal inhibitory concentration (IC50) in data set [1] and in data set [2] were 47 nM and 211 nM, respectively. Moreover, the Ratio IC50 in the data set listed under Homo sapiens was 0.2.

Regarding `CCOC(=O)/C=C\Sc1nc(-c2ccc(F)cc2)c(-c2ccnc(Nc3ccccc3)c2)[nH]1`, the IC50 in data set [1] came out at 80 nM; in data set [2], 146 nM. Further, the Ratio IC50 in the data set listed under Homo sapiens was 0.5.

Regarding `CC(=O)Nc1cc(-c2c(-c3ccc(F)cc3)nc(S/C=C\C(=O)O)n2CC(O)CO)ccn1` (stereo not given), the concentration for half-maximal inhibition (IC50) came out at 226 nM in data set [1] and 723 nM in data set [2]. Further, the Ratio IC50 in the data set filed under Homo sapiens is 0.3.

On to `CCOC(=O)/C=C/Sc1nc(-c2ccc(F)cc2)c(-c2ccnc(NC(C)=O)c2)n1C1CC1`, for which the IC50 in data set [1] came to 678 nM; in data set [2], 451 nM. The Ratio IC50 in the data set listed under Homo sapiens is 1.5.

`COC(Cn1c(SCC#N)nc(-c2ccc(F)cc2)c1-c1ccnc(F)c1)OC`: the half-inhibitory concentration (IC50) in data set [1] turned out to be 4220 nM; in data set [2], 642 nM. Also, the Ratio IC50 in the data set filed under Homo sapiens came to 6.6.

Take `COC(Cn1c(S/C=C\C(=O)O)nc(-c2ccc(F)cc2)c1-c1ccnc(NC2CC2)c1)OC`: the half-maximal inhibitory concentration (IC50) in data set [1] was 12 nM; in data set [2], 128 nM. The Ratio IC50 in the data set filed under Homo sapiens is 0.1.
